Source: paper PMC3091966 (2011)

Legend:
[1] = target: T1, human αβγ ENaC (α subunit) (Homo sapiens, UniProt P37088+P51168+P51170); experiment: two-electrode voltage clamp in Xenopus oocytes, block of current; assay type: cell-based
T1 sequence (P37088 1-669): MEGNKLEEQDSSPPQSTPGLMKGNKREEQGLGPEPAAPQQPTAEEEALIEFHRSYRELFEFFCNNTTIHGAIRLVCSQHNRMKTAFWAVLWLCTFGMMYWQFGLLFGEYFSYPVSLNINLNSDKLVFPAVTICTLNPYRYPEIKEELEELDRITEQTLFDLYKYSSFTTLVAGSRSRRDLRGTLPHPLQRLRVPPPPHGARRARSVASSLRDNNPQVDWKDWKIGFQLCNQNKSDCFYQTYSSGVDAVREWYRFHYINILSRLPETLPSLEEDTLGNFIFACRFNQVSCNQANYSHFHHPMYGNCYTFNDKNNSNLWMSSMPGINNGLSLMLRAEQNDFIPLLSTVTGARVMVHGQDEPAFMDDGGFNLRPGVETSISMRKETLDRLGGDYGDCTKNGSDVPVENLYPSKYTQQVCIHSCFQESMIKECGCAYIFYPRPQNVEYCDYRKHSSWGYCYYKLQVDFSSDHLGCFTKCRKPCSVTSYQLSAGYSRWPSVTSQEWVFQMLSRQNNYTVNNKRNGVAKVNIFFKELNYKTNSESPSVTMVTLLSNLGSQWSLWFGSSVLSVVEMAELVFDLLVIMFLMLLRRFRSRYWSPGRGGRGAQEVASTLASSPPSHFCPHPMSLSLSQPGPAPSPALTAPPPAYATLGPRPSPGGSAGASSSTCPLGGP
T1 sequence (P51168 1-640): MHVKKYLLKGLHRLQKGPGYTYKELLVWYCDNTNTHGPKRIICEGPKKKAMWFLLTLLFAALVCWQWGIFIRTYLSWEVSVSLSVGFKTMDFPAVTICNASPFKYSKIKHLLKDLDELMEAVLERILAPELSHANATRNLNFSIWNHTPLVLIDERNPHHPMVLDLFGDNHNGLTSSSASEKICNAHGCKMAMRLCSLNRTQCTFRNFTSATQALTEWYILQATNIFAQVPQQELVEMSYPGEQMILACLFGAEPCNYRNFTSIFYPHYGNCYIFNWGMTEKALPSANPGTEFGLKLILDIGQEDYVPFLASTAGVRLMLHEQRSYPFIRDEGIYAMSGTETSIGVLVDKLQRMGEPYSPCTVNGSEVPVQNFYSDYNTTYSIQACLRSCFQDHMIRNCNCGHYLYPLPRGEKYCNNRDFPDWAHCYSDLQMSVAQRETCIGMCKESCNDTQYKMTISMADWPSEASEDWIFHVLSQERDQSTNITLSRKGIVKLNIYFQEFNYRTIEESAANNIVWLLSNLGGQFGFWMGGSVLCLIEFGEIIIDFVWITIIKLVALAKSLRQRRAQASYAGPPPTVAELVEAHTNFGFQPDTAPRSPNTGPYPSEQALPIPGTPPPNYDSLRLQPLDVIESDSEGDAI
T1 sequence (P51170 1-649): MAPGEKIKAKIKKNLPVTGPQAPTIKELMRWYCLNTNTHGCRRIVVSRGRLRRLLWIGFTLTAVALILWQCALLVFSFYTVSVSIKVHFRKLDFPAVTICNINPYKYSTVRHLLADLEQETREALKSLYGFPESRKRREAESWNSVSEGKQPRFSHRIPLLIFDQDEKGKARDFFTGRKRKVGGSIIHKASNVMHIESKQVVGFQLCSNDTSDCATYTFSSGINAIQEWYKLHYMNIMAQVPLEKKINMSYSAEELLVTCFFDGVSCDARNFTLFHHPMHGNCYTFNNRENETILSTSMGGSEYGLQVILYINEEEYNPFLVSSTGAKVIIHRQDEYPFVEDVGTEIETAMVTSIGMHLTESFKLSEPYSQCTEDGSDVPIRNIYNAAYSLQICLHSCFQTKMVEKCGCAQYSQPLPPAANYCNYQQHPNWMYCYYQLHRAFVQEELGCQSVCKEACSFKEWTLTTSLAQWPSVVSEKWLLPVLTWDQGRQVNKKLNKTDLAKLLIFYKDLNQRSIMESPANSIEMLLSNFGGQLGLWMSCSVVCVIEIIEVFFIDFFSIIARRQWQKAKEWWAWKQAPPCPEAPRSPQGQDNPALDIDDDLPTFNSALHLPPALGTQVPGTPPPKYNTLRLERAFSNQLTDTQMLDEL

[2] = target: T1, human αβγ ENaC (α subunit); experiment: two-electrode voltage clamp in Xenopus oocytes, external perfusion; assay type: cell-based

In the case of `N=C(N)NC(=O)c1nc(Cl)c(N)nc1N` [amiloride], the “two-electrode voltage clamp in Xenopus oocytes, block of current” value [1] is reported as “Both basal and elevated currents were sensitive to amiloride”.

For `Nc1ncnc2c1nc(Sc1ccc(Cl)cc1)n2[C@@H]1O[C@@H]2COP(=O)(O)O[C@H]2[C@H]1O` [cpt-cAMP], the EC50 [2] was 49 ± 14 µM.
